This note sets out measurements from ChEMBL document CHEMBL4373699, “Structure-Guided Discovery of a Selective Mcl-1 Inhibitor with Cellular Activity” (J Med Chem, 2019).

Assay [1] addresses T1, Apoptosis regulator Bcl-2 (Homo sapiens, UniProt P10415). Briefly: biochemical.
For assay [2], the target named is T2, Induced myeloid leukemia cell differentiation protein Mcl-1 (Homo sapiens, UniProt Q07820). Briefly: biochemical.
The target in assay [3] is T3, Bcl-2-like protein 1 (Homo sapiens, UniProt Q07817). In words: Inhibition of Bcl-XL (unknown origin) by fluorescence polarization assay. In general terms: Polarisation of emitted light reports the rotation of a fluorescent probe.
In assay [4] the target is T2, Induced myeloid leukemia cell differentiation protein Mcl-1. In words: biochemical. The source holds these as a separate data set.
Description: Binding affinity to TEV-fused His-tagged human Mcl-1 expressed in Escherichia coliBL21(DE3) pLysS cells by Isothermal Titration Calorimetry
Assay [5] addresses T1, Apoptosis regulator Bcl-2. Briefly: Displacement of N-terminal fluorescein labelled Puma-BH3 peptide from human N-terminal thrombin cleavage site-fused/His6-tagged Bcl-2 expressed in Escherichia coliBL21(DE3) pLysS cells at 10 uM by fluorescence polarization assay relative to control.
For assay [6], the target named is T3, Bcl-2-like protein 1. In words: Inhibition of Bcl-XL (unknown origin) at 10 uM by fluorescence polarization assay relative to control.
Assay [7] deals with T3, Bcl-2-like protein 1. In words: Inhibition of Bcl-XL (unknown origin) at 0.5 mM by fluorescence polarization assay relative to control.

T3 sequence (Q07817 whole entry): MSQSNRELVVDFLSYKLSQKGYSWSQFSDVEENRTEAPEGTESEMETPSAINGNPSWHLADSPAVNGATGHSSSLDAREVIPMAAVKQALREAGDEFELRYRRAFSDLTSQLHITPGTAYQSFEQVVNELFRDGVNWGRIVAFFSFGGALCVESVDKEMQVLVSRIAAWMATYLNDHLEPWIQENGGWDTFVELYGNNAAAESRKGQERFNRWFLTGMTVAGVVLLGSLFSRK
T2 sequence (Q07820 whole entry): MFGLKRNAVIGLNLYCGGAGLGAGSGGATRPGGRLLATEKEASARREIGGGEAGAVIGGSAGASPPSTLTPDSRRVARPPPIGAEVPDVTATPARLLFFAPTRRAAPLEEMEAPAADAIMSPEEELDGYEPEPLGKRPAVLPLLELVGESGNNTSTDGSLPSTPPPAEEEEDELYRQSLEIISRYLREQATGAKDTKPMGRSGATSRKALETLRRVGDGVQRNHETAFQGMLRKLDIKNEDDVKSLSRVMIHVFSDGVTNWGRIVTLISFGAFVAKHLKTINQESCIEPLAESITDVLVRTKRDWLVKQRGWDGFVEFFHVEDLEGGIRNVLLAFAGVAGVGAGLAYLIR
T1 sequence (P10415 whole entry): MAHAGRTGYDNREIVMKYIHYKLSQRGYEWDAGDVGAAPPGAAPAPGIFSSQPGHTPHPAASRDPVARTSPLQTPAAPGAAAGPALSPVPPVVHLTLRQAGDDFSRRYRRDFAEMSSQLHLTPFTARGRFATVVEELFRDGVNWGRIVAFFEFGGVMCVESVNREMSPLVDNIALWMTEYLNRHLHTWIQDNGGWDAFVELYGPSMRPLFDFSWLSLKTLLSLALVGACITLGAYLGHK

Consider `CCc1sc2ncnc(N[C@@H](C)C(=O)O)c2c1CC`, for which, in assay [1], the IC50 – broadly, the concentration at which inhibition is half-maximal – turned out to be 164 µM and affinity was put at a Ki of 74 µM. Further, the affinity in assay [2], expressed as Ki, was 50 µM.

Take `CCc1sc2ncnc(N[C@@H](Cc3ccccc3)C(=O)O)c2c1-c1cccc(Oc2ccc(F)cc2)c1`: the figures for the inhibition constant Ki (on Bcl-2-like protein 1 [3]; in assay [1]; in assay [2]) were 18 µM, 24 µM and 77 µM, respectively.

`CCNS(=O)(=O)c1cccc(-c2nc(N[C@H](C)C(=O)O)c3c(-c4cccc(Oc5ccc(F)cc5)c4)c(CC)sc3n2)c1`: the Ki (usually a dissociation constant, usually derived from enzyme kinetics or from competition with a known ligand) was 39 µM at Bcl-2-like protein 1 [3], 1.3 µM in assay [1] and 50 µM in assay [2].

Take `CCc1sc2ncnc(N[C@@H](C)C(=O)O)c2c1-c1cccc(Oc2ccc(F)cc2)c1`: the Ki on Bcl-2-like protein 1 [3] was 33 µM; in assay [1], 98 µM; in assay [2] it was 130 µM.

As for `CCc1sc2ncnc(N[C@H](Cc3ccccc3)C(=O)O)c2c1-c1cccc(Oc2ccc(F)cc2)c1`, the Ki on Bcl-2-like protein 1 [3] was found to be 24 µM; in assay [1], 24 µM; in assay [2], 51 µM.

In turn, `CCc1sc2ncnc(N[C@H](C)C(=O)O)c2c1-c1ccc2ccccc2c1` came in with a Ki in assay [2] of 110 µM. `CCc1sc2ncnc(O[C@H](Cc3ccccc3)C(=O)O)c2c1-c1cc(CN2CCN(C)CC2)c(O)c(Cl)c1C`: the inhibitory constant (Ki) in assay [2] was 0.032 µM. On to `CCc1sc2ncnc(O[C@H](Cc3ccccc3)C(=O)O)c2c1-c1cccc(Cl)c1C`, for which the Ki amounted to 36 µM in assay [1] and 0.81 µM in assay [2]. `CCc1sc2ncnc(O[C@H](C)C(=O)O)c2c1-c1ccc2ccccc2c1` displayed a Ki in assay [2] of 6 µM. Still for that read-out and setting: the result for `CCc1sc2ncnc(O[C@H](Cc3ccccc3)C(=O)O)c2c1-c1cccc2[nH]ccc12` (stereo in doubt; 9b) [listing 1 of 2 here] reads 0.64 µM; that for `CCc1sc2ncnc(O[C@H](C)C(=O)O)c2c1-c1ccccc1C` (stereo in doubt; 7e), 15 µM. For the molecule `CCc1sc2ncnc(N[C@H](Cc3ccccc3OCCN3CCN(C)CC3)C(=O)O)c2c1-c1cccc(Cl)c1C`, binding in assay [4] was put at a Kd of 360 nM. Affinity in assay [2] was put at a Ki of 2 µM. With `CCc1sc2ncnc(O[C@H](Cc3ccccc3)C(=O)O)c2c1-c1cccc2[nH]ccc12` (stereo in doubt; 9b) [listing 2 of 2 here], the inhibition – broadly, the change of the read-out against control, counted positive when it falls – in assay [5] came out at 11%.

Turning to `CCc1sc2ncnc(N[C@@H](C(=O)O)c3ccccc3)c2c1-c1cccc(O)c1`, the inhibitory constant (Ki) is 319 µM at Bcl-2-like protein 1 [3], 470 µM in assay [1] and 7.7 µM in assay [2]. Take `CCc1sc2ncnc(O[C@H](Cc3ccccc3)C(=O)O)c2c1-c1ccccc1C` (stereo in doubt; 9d) [listing 1 of 2 here]: in assay [2], affinity was put at a Ki of 0.89 µM. On to `CCc1sc2ncnc(NC(C(=O)O)c3ccccc3)c2c1-c1cccc(Oc2ccc(F)cc2)c1` (racemic), for which the inhibition constant (Ki) at Bcl-2-like protein 1 [3] was 15 µM; in assay [1], 13 µM; in assay [2], 68 µM.

The molecule `CCc1sc2ncnc(N[C@@H](Cc3ccccc3)C(=O)O)c2c1-c1cccc(O)c1` returned a Ki in assay [2] of 58 µM.

With `CCc1sc2ncnc(N[C@H](CC3CCCCC3)C(=O)O)c2c1-c1cccc(Oc2ccc(F)cc2)c1`, the inhibition constant (Ki) at Bcl-2-like protein 1 [3] was 17 µM; in assay [1], 8.1 µM; in assay [2] it was 53 µM. For `CCc1sc2nc(S(C)(=O)=O)nc(N[C@H](C)C(=O)O)c2c1-c1cccc(Oc2ccc(F)cc2)c1`, in that order: 26 µM, 51 µM and 44 µM. In the case of `CCc1sc2ncnc(O[C@H](Cc3ccccc3)C(=O)O)c2c1-c1ccccc1C` (stereo in doubt; 9d) [listing 2 of 2 here], the inhibition against Bcl-2-like protein 1 [6] stood at 2%; in assay [5], 5%. Turning to `CCc1sc2ncnc(N[C@H](C)C(=O)O)c2c1-c1ccccc1C`, affinity in assay [2] was put at a Ki of 100 µM. On to `CCc1sc2nc(-c3cccnc3)nc(N[C@H](C)C(=O)O)c2c1-c1cccc(Oc2ccc(F)cc2)c1`, for which the Ki on Bcl-2-like protein 1 [3] turned out to be 18 µM; in assay [1], 4.1 µM; in assay [2], 8.4 µM. In assay [2], `CCc1sc2ncnc(N[C@H](Cc3ccccc3)C(=O)O)c2c1-c1cccc2[nH]ccc12` (stereo in doubt; 8b) yielded an inhibitory constant (Ki) of 5.7 µM. The same measure, in the same setting: next, `CCc1sc2ncnc(O[C@H](Cc3ccccc3)C(=O)O)c2c1-c1cccc2[nH]ccc12` (stereo in doubt; 9a): 0.49 µM. For the molecule `C[C@@H](Nc1ncnc2sc(-c3ccccc3)c(-c3cccc(O)c3)c12)C(=O)O`, the inhibition constant Ki is 42 µM on Bcl-2-like protein 1 [3], 49 µM in assay [1] and 27 µM in assay [2].

In turn, `CCc1sc2ncnc(O[C@H](Cc3ccccc3)C(=O)O)c2c1-c1ccc(OCC(=O)N2CCN(C)CC2)c(Cl)c1C` yielded a Ki in assay [2] of 0.021 µM. In the case of `CCc1sc2ncnc(N[C@H](Cc3ccccc3)C(=O)O)c2c1-c1cccc(O)c1`, in assay [2], the affinity corresponds to a Ki of 10 µM. For `CCc1sc2ncnc(N[C@H](Cc3ccccc3OC)C(=O)O)c2c1-c1cccc(Cl)c1C`, the affinity in assay [4], expressed as Kd, was 24 nM. In assay [2], the affinity corresponds to a Ki of 0.26 µM. As to `O=C(O)[C@@H](Cc1ccccc1)Nc1ncnc2sc(-c3ccccc3)c(-c3cccc(O)c3)c12`, the inhibitory constant (Ki) in assay [1] amounted to 21 µM; in assay [2], 24 µM. On the same counts, the results for `CCc1sc2ncnc(N[C@@H](C)C(=O)O)c2c1-c1cccc(C(F)(F)F)c1` are 437 µM and 21 µM. Turning to `CCc1sc2ncnc(O[C@H](C)C(=O)O)c2c1-c1ccccc1C` (stereo in doubt; 7d), in assay [2], the Ki is 18 µM. On the same count and under the same terms, next, `CCc1sc2ncnc(O[C@H](Cc3ccccc3)C(=O)O)c2c1-c1cccc(Br)c1C` (stereo in doubt; 10a): 5.3 µM; `CCc1sc2ncnc(O[C@H](Cc3ccccc3)C(=O)O)c2c1-c1cc2cc(CN(C)C)oc2c(Cl)c1C`: 0.076 µM. In turn, `CCc1sc2ncnc(N[C@H](Cc3ccccc3)C(=O)O)c2c1-c1ccc(OCCN2CCN(C)CC2)c(Cl)c1C` (stereo in doubt; 17b) came in with a Ki in assay [2] of 170 µM. The molecule `CCc1sc2ncnc(O[C@H](C)C(=O)O)c2c1-c1ccc(C(C)C)cc1` gave an inhibitory constant (Ki) in assay [2] of 8.1 µM. As to `CCc1sc2ncnc(N[C@H](C)C(=O)O)c2c1-c1cccc(Oc2ccc(F)cc2)c1`, the Ki in assay [1] was 6.1 µM; in assay [2], 19 µM.

Consider `CCc1sc2ncnc(NC(CO)C(=O)O)c2c1-c1cccc(Oc2ccc(F)cc2)c1` (racemic), for which the inhibition constant (Ki) at Bcl-2-like protein 1 [3] is 87 µM; in assay [2], 61 µM. For `C[C@@H](Nc1ncnc2scc(-c3cccc(O)c3)c12)C(=O)O`, the inhibition constant (Ki) on Bcl-2-like protein 1 [3] was found to be 287 µM; in assay [2] it was 59 µM. For `CCc1sc2ncnc(N[C@H](C)C(=O)O)c2c1-c1cccc(O)c1`, the Ki in assay [1] was found to be 5 µM; in assay [2], 45 µM. The molecule `CCc1sc2ncnc(N[C@H](C)C(=O)O)c2c1-c1ccccc1OCc1ccccc1` yielded an inhibitory constant (Ki) in assay [2] of 24 µM.

Regarding `C=C(C)c1sc2ncnc(N[C@H](Cc3ccccc3)C(=O)O)c2c1-c1cccc(Cl)c1C`, the figures for the inhibition constant Ki in assay [1] and in assay [2] were 5.4 µM and 19 µM, respectively. The molecule further yielded an inhibition against Bcl-2-like protein 1 [7] of 35%. Take `CCc1sc2ncnc(N[C@H](Cc3ccccc3)C(=O)O)c2c1-c1cccc2[nH]ccc12` (stereo in doubt; 8a): the values for the Ki (on Bcl-2-like protein 1 [3]; in assay [2]) were 135 µM and 1.6 µM, respectively. In assay [2], `CCc1sc2ncnc(O[C@H](Cc3ccccc3)C(=O)O)c2c1-c1ccccc1C` (stereo in doubt; 9c) showed an inhibition constant (Ki) of 3.4 µM.

For `CCc1sc2ncnc(N[C@@H](C)C(=O)O)c2c1-c1ccccc1`, the inhibitory constant (Ki) was found to be 418 µM in assay [1] and 110 µM in assay [2]. Take `CCc1sc2ncnc(N[C@H](C(=O)O)c3ccccc3)c2c1-c1cccc(O)c1`: the inhibition constant Ki was determined as 107 µM at Bcl-2-like protein 1 [3], 269 µM in assay [1] and 27 µM in assay [2].

On to `CCc1sc2ncnc(O[C@H](Cc3ccccc3)C(=O)O)c2c1-c1cccc(Br)c1C` (stereo in doubt; 10b), for which the inhibitory constant (Ki) in assay [2] turned out to be 0.33 µM. Consider `CCc1sc2ncnc(N[C@@H](C)C(=O)O)c2c1-c1ccc(SC)cc1`, for which the Ki on Bcl-2-like protein 1 [3] stood at 216 µM; in assay [1], 359 µM; in assay [2] it was 44 µM.
